Assay results taken from patent US12667572B2, “Tricyclic compounds useful in the treatment of cancer, autoimmune and inflammatory disorders” (SCHRÖDINGER, INC., priority 2021, dated 2026).

Columns and labels:
[1] = tested on: IL10 secretion in OCI-LY10 cells; assay: Human IL10 secretion assay, Assay 1 (HTRF); assay type: cell-based; conditions: 24 h incubation, read-out: IL-10 Secretion IC50 [nM] Assay 1
Method: (§1) IL10 is one of the cytokines that are regulated via activation of NF-kB signaling. For example, in ABC-DLBCL cell lines, the activated NF-kB signaling leads to increased IL10 secretion. Inhibition of NF-kB signaling has been shown leading to decreased IL10 secretion.
Assay 1: OCI-LY10 cells were seeded in IMEM supplemented with 20% fetal bovine serum at 3×10^5 cells per well in 96-well round bottom plates (Corning 3799, Corning), treated with 100 nL of 3-fold serial compound dilutions, starting at 10 mM. The final vehicle concentration was 0.1% DMSO in all wells. After 24 h incubation, the cells were transferred to 96-PCR plates (Axygen: PCR-96-FLT-C) and centrifuged, then 16 μL of cell culture media was transferred to HTRF plates and IL10 levels were measured using human IL-10 Assay Kits (Cisbio) using HTRF format. The signals were transformed to percentage of remaining activity by using the high control (HC, median of signal from wells containing cells treated with DMSO) and low control (LC, median of signal from wells with no cells). IC50 values (nM) were determined using 4-parametric curve-fitting and Hill coefficient obtained using Graph Pad Prism (Graph Pad software, Inc, USA) with non-linear regression analysis.

[2] = biological target: T1, full-length MALT1 protein His-MALT1(1-824) (Homo sapiens, UniProt Q9UDY8); assay: MALT1 protease assay, Assay 1 (2 nM MALT1, Ac-LRSR-AMC substrate); assay type: biochemical; conditions: 2 nM MALT1, 50 μM Ac-LRSR-AMC, 2 h pre-incubation, 8 hr incubation at RT
T1 construct: full-length MALT1 protein His-MALT1(1-824); His (N); made in house; host or cells: baculovirus-infected insect cells
T1 sequence (Q9UDY8 1-824): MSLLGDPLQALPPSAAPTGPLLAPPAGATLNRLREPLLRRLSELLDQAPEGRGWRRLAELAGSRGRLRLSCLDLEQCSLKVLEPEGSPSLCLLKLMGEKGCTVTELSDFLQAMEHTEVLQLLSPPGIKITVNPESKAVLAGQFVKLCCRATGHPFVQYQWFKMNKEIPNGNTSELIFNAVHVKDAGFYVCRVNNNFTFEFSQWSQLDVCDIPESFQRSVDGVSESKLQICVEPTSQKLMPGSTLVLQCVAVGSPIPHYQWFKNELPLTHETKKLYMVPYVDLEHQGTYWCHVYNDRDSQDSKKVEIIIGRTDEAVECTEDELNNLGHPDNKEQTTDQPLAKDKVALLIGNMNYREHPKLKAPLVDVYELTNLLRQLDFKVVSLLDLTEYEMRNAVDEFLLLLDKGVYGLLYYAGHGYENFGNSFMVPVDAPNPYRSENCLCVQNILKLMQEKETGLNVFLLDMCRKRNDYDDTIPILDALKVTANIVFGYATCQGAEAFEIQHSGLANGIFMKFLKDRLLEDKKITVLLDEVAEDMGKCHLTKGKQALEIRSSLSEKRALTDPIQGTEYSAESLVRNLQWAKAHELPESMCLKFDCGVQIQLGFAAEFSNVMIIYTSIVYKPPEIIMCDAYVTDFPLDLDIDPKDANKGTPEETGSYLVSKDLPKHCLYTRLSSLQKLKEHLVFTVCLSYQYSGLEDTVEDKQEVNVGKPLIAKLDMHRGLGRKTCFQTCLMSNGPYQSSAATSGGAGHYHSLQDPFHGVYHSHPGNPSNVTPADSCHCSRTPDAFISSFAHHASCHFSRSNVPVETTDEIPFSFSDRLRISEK
In short: (§2)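 Full-length His-MALT1(1-824) from baculovirus-infected insect cells, pre-incubated with compound 2 h at RT (0.1% DMSO). Then 50 μM Ac-LRSR-AMC added. Buffer was Tris pH 7.5 with 600 mM sodium citrate, DTT, EDTA and BSA. Fluorescence (ex 355/em 460 nm) was read after 8 h at RT and normalized to high/low controls. IC50 from non-linear regression.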

[3] = biological target: T1, full-length MALT1 protein His-MALT1(1-824); assay: MALT1 protease assay, Assay 2 (1 nM MALT1, Ac-LRSR-AMC substrate); assay type: biochemical; conditions: 1 nM MALT1, 50 μM Ac-LRSR-AMC, 2 h pre-incubation, 8 hr incubation at RT
In short: as §2

[4] = tested on: IL10 secretion in OCI-LY10 cells; assay: Human IL10 secretion assay, Assay 2 (MSD); assay type: cell-based; conditions: Homo sapiens, 24 h incubation, Meso Scale Discovery, read-out: IL-10 Secretion IC50 [nM] Assay 2
Method: as §1
Assay 2: OCI-LY10 cells were seeded in IMEM supplemented with 20% fetal bovine serum at 4.8×10^5 cells per 160 μL per well in 96-well V-bottom cell culture plates (corning, 3894), treated with 120 nL of 3-fold serial compound dilutions, starting at 4 mM. The final vehicle concentration was 0.075% DMSO in all wells. After a 24 h incubation, human IL-10 precoated plates (Meso Scale Discovery) were washed 3 times with PBST, and 50 μL culture medium was aspirated into the MSD plate and incubated at 4° C. overnight. The supernatant was then discarded, and the wells were washed 3 times with PB ST. SULFO-TAG Anti-human IL-10 Antibody (50×) was diluted 50-fold according to the Meso Scale Protocol, then 25 μL of SULFO-TAG Anti-human IL-10 Antibody (1×) was added. After 2 h of incubation at RT, the supernatant was discarded, and the well was washed 3 times with PBST. 2×read buffer was added and the signal was read on an MSD Sector S600. The effect of a particular compound on IL10 secretion is shown relative to the effect of DMSO; set as 100%. IC50 values (nM) were determined using 4-parametric curve-fitting.

IC50 [1] [nM] | IC50 [2] [nM] | IC50 [3] [nM] | IC50 [4] [nM] | Compound
100 to 1000 | < 10 |  |  | Cc1cc2ncc3c(n2n1)C(C)(C)C[C@@H]3C(=O)Nc1cnc(-n2nccn2)c(Cl)c1 (single isomer, unassigned) [Example 6, N-(5-chloro-6-(2H-1,2,3-triazol-2-yl)pyridin-3-yl)-2,8,8-trimethyl-7,8-dihydro-6H-cyclopenta[e]pyrazolo[1,5-a]pyrimidine-6-carboxamide]
100 to 1000 | < 10 |  |  | CC1(C)CC(C(=O)Nc2cnc(-n3nccn3)c(Cl)c2)c2cnc3cc(Cl)nn3c21 (single isomer, unassigned) [Example 2, 2-chloro-N-(5-chloro-6-(2H-1,2,3-triazol-2-yl)pyridin-3-yl)-8,8-dimethyl-7,8-dihydro-6H-cyclopenta[e]pyrazolo[1,5-a]pyrimidine-6-carboxamide]
100 to 1000 | 10 to 100 |  |  | Cn1ccc(-c2ncc(NC(=O)C3CC(C)(C)c4c3cnc3cc(Cl)nn43)cc2Cl)n1 (single isomer, unassigned) [Example 11, 2-chloro-N-(5-chloro-6-(1-methyl-1H-pyrazol-3-yl)pyridin-3-yl)-8,8-dimethyl-7,8-dihydro-6H-cyclopenta[e]pyrazolo[1,5-a]pyrimidine-6-carboxamide]
 |  | 10 to 100 | ≥ 1000 | CC1(C)CC(C(=O)Nc2cnc(-c3nnn(CCO)n3)c(Cl)c2)c2cnc3cc(Cl)nn3c21 (stereo not drawn) [Example 123, 2-chloro-N-(5-chloro-6-(2-(2-hydroxyethyl)-2H-tetrazol-5-yl)pyridin-3-yl)-8,8-dimethyl-7,8-dihydro-6H-cyclopenta[e]pyrazolo[1,5-a]pyrimidine-6-carboxamide]
 |  | < 10 | 100 to 1000 | C[C@@]1(C(F)(F)F)C[C@H](C(=O)Nc2cnc(-n3nccn3)c(C(F)(F)F)c2)c2cnc3cc(Cl)nn3c21 (single isomer, unassigned) [Example 54, N-(6-(2H-1,2,3-triazol-2-yl)-5˜(trifluoromethyl)pyridin-3-yl)-2-chloro-8-methyl-8-(trifluoromethyl)-7,8-dihydro-6H-cyclopenta[e]pyrazolo[1,5-a]pyrimidine-6-carboxamide]
 |  | < 10 | 10 to 100 | CC1(C)CC(C(=O)Nc2cnc(OC(F)F)c(C#N)c2)c2cnc3cc(Cl)nn3c21 (single isomer, unassigned) [Example 79, 2-chloro-N-(5-cyano-6-(difluoromethoxy)pyridin-3-yl)-8,8-dimethyl-7,8-dihydro-6H-cyclopenta[e]pyrazolo[1,5-a]pyrimidine-6-carboxamide]
 |  | < 10 | 100 to 1000 | O=C(Nc1cnc(-n2nccn2)c(Cl)c1)[C@H]1CC2(CCC2)c2c1cnc1cc(F)nn21 (single isomer, unassigned) [Example 108, N-(5-chloro-6-(2H-1,2,3-triazol-2-yl)pyridin-3-yl)-2′-fluoro-6′,7′-dihydrospiro[cyclobutane-1,8′-cyclopenta[e]pyrazolo[1,5-a]pyrimidine]-6′-carboxamide]
 |  | < 10 | 10 to 100 | CC1(C)CC(C(=O)Nc2cnc(-n3nccn3)c(C(F)(F)F)c2)c2cnn3cc(Cl)nc3c21 (single isomer, unassigned) [Example 193, N-(6-(2H-1,2,3-triazol-2-yl)-5-(trifluoromethyl)pyridin-3-yl)-2-chloro-9,9-dimethyl-8,9-dihydro-7H-cyclopenta[d]imidazo[1,2-b]pyridazine-7-carboxamide]
 |  | < 10 | 10 to 100 | CC1(C)CC(C(=O)Nc2cnc(-n3nccn3)c(C#N)c2)c2cnc3cc(Cl)nn3c21 (single isomer, unassigned) [Example 107, 2-chloro-N-(5-cyano-6-(2H-1,2,3-triazol-2-yl)pyridin-3-yl)-8,8-dimethyl-7,8-dihydro-6H-cyclopenta[e]pyrazolo[1,5-a]pyrimidine-6-carboxamide]
 |  | < 10 | 100 to 1000 | C[C@H](O)c1cnn(-c2ncc(NC(=O)[C@H]3CC(C)(C)c4c3cnc3cc(Cl)nn43)cc2Cl)n1 (single isomer, unassigned) [Example 49, 2-chloro-N-(5-chloro-6-(4-(1-hydroxyethyl)-2H-1,2,3-triazol-2-yl)pyridin-3-yl)-8,8-dimethyl-7,8-dihydro-6H-cyclopenta[e]pyrazolo[1,5-a]pyrimidine-6-carboxamide]
 |  | 10 to 100 | 100 to 1000 | CC1(C)CC(C(=O)Nc2cnc(OC(F)F)c(C#N)c2)c2cnc3c(F)c(F)nn3c21 (single isomer, unassigned) [Example 91, N-(5-cyano-6-(difluoromethoxy)pyridin-3-yl)-2,3-difluoro-8,8-dimethyl-7,8-dihydro-6H-cyclopenta[e]pyrazolo[1,5-a]pyrimidine-6-carboxamide]
 |  | < 10 | 100 to 1000 | N#Cc1cc(NC(=O)C2CC3(CCC3)c3c2cnc2cc(F)nn32)cnc1OC(F)F (single isomer, unassigned) [Example 103, N-(5-cyano-6-(difluoromethoxy)pyridin-3-yl)-2′-fluoro-6′,7′-dihydrospiro[cyclobutane-1,8′-cyclopenta[e]pyrazolo[1,5-a]pyrimidine]-6′-carboxamide]
 |  | 10 to 100 | 100 to 1000 | CC1(C)CC(C(=O)Nc2cnc(-n3nccn3)c(Cl)c2)c2cnc3c(F)cnn3c21 (single isomer, unassigned) [Example 101, N-(5-chloro-6-(2H-1,2,3-triazol-2-yl)pyridin-3-yl)-3-fluoro-8,8-dimethyl-7,8-dihydro-6H-cyclopenta[e]pyrazolo[1,5-a]pyrimidine-6-carboxamide]
 |  | < 10 | 10 to 100 | CC1(C)CC(C(=O)Nc2cnc(-n3nccn3)c(Cl)c2)c2cnn3cc(Cl)nc3c21 (single isomer, unassigned) [Example 195, 2-chloro-N-(5-chloro-6-(2H-1,2,3-triazol-2-yl)pyridin-3-yl)-9,9-dimethyl-8,9-dihydro-7H-cyclopenta[d]imidazo[1,2-b]pyridazine-7-carboxamide]
 |  | 10 to 100 | 100 to 1000 | CC1(C)CC(C(=O)Nc2cc(N=S(C)(C)=O)nc(C(F)(F)F)c2)c2cnc3cc(F)nn3c21 (single isomer, unassigned) [Example 128, N-(2-((dimethyl(oxo)-λ^6-sulfaneylidene)amino)-6-(trifluoromethyl)pyridin-4-yl)-2-fluoro-8,8-dimethyl-7,8-dihydro-6H-cyclopenta[e]pyrazolo[1,5-a]pyrimidine-6-carboxamide]
